From patent publication US20250304567A1, “PYRROLIDIONE DERIVATIVES AS INHIBITORS OF NF KAPPA B INDUCING KINASE” (priority 2022, published 2025)
Read-outs that look alike come from different tables or passages of the source.

Assays:
[1] = molecular target: Recombinant Human NF-kappaB-Inducing Kinase (NIK/MAP3K14) (Homo sapiens, UniProt Q99558); experiment: Inhibition of auto-phosphorylation of recombinant human NIK/MAP3K14 activity (AlphaScreen); type: biochemical; details: 5 μM ATP, 1 nM NIK, average if tested more than once
Sequence of Recombinant Human NF-kappaB-Inducing Kinase (NIK/MAP3K14) (Q99558 whole entry): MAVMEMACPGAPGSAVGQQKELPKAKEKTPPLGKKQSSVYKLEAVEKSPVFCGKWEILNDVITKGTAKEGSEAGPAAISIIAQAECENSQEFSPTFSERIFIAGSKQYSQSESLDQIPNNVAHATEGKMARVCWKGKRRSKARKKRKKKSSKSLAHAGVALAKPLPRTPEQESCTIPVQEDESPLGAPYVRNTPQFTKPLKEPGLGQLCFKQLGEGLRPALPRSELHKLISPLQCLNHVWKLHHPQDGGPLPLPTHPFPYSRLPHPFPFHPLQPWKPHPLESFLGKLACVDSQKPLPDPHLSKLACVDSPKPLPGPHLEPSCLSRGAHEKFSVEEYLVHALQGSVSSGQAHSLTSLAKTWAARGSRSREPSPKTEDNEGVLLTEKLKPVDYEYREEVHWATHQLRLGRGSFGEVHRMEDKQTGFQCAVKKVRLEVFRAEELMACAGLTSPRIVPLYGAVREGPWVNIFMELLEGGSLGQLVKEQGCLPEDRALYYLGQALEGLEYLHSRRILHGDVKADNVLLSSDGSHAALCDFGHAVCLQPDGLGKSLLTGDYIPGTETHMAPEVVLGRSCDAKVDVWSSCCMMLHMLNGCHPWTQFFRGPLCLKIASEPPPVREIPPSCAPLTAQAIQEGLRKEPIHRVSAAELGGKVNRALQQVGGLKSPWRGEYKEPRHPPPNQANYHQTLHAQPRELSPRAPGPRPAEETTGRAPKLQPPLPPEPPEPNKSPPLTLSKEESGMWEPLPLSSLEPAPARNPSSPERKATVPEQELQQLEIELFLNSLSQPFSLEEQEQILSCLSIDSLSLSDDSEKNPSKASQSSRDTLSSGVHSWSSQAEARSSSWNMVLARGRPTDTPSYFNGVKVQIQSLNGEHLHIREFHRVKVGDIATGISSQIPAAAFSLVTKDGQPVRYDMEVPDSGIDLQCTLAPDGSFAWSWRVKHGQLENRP
Description: Assay 1: Inhibition of Auto-Phosphorylation of Recombinant Human NF-kappaB-Inducing Kinase (NIK/MAP3K14) Activity (AlphaScreen™)
NIK/MAP3K14 auto-phosphorylation activity was measured using the AlphaScreen™ (αscreen) format (Perkin Elmer). All compounds tested were dissolved in dimethyl sulfoxide (DMSO) and further dilutions were made in assay buffer. The final DMSO concentration was 0.7% (v/v) in assays. The assay buffer was 50 mM Tris pH 7.5 containing 1 mM EGTA (ethylene glycol tetraacetic acid), 1 mM DTT (dithiothreitol), 0.1 mM Na3VO4, 5 mM MgCl2, and 0.01% Tween®20. The assays were carried out in 384 well Proxiplates (Perkin Elmer). The incubations consisted of the compound, 5 μM Adenosine-5′-triphosphate (ATP), and 1 nM NIK/MAP3K14. Incubations were initiated by the addition of GST-tagged NIK/MAP3K14 enzyme, carried out for 2 h at 25° C. and terminated by addition of stop buffer containing anti-phospho-IKK Ser176/180 antibody. Protein A Acceptor and Glutathione-Donor beads were added before reading using an EnVision Multilabel Plate Reader (Perkin Elmer). The signal obtained in the wells was normalized using high (full enzyme activity, 0.7% DMSO) and low controls (no enzyme activity, 0.7% DMSO, no ATP). IC50's were determined by fitting a sigmoidal curve to % inhibition of control versus Log10 compound concentration.

[2] = test system: p-IKKa levels in L363 (NIK translocated multiple myeloma) cells; experiment: Effect of compounds on p-IKKa levels in L363 (NIK translocated multiple myeloma) cells (AlphaLISA SureFire Ultra p-IKKa Ser176/180); type: cell-based, human; details: average if tested more than once, read-out: Assay 2 IC50
Description: Assay 2: Effect of Compounds on p-IKKa Levels in L363 (NIK Translocated Multiple Myeloma) Cells
All compounds tested were dissolved and serially diluted in DMSO, 1:3 dilution for 11 points in an Echo compatible plate. 100% DMSO was added to columns 12 and 24 of the plate to serve as high and low signal controls. This compound plate was used to spot 20 nL of compound or DMSO into a Greiner 384 well TC plate (781080). The final DMSO concentration was 0.3% (v/v) in cell assays. Human L363 cells (ATCC) were cultured in RPM11640 medium supplemented with GlutaMax, non-essential amino acids, sodium pyruvate and 10% fetal bovine serum. Cells were routinely maintained at densities of 0.2×10^6 cells per ml-2×10^6 cells per mL at 37° C. in a humidified 5% CO2 atmosphere incubator. Cells were passaged twice a week splitting back to obtain the low density. The day before the assay, cells were washed twice in HBSS (Hank's Balanced Salt Solution), resuspended in Dulbecco's Modified Eagle Medium (DMEM)+0.5% IgG and protease free BSA (Jackson Immuno Research Laboratories), +/−250 ng/ml recombinant human B-cell activating factor (BAFF/BLyS/TNFSF13B) and incubated overnight at 37° C. in a humidified 5% CO2 atmosphere (bulk stimulation with or without BAFF). The next day, the cell concentration was adjusted to 1×10^7 cells/ml in DMEM+/−250 ng/ml BAFF+/−10 μM MG132 and plated at 10 μl/well into compound or DMSO spotted 384 well TC plates. Seeded cells were incubated at 37° C. in a humidified 5% CO2 atmosphere for 6 h. After 6 h, the plates were removed from the incubator and cell lysis was achieved by the addition of 2.5 μl 5× lysis buffer containing protease and phosphatase inhibitors, followed by shaking on a plate shaker at room temperature for 15 min. At the end of this incubation, lysed cells were sequentially treated and incubated with acceptor and donor bead mixes according to the manufacturer's protocol for a 1 plate/2-incubation suspension cell assay (AlphaLISA SureFire Ultra p-IKKa (Ser 176/180) Assay Kit (Perkin Elmer). Plates were read using an EnVision Multilabel Plate Reader (Perkin Elmer). Within an experiment, a concentration response curve for each compound was run in duplicate. The signal obtained in the test wells was normalized using high signal (BAFF stimulated cells, DMSO, MG132) and low signal (unstimulated cells, DMSO) controls. To determine the IC50, a sigmoidal curve was fitted to the plot of % inhibition versus Log10 compound concentration.

[3] = Homo sapiens, L-363, p-IKKa levels in L363 cells

| SMILES | IC50 [1] | IC50 [2, 3] | IC50 ([2]; p-IKKa levels in L363 cells) |
| --- | --- | --- | --- |
| CN1CC[C@@](O)(c2cccc(-c3nc(-c4ccnc(N[C@H]5C[C@H](O)C5)n4)cs3)c2)C1=O [Example 109, (R)-3-hydroxy-3-(3-(4-(2-(((1R,3R)-3-hydroxycyclobutyl)amino)pyrimidin-4-yl)thiazol-2-yl)phenyl)-1-methylpyrrolidin-2-one] | 100 to 500 nM | > 501 nM |  |
| CN1CC[C@@](O)(c2cccc(-c3nc(-c4ccnc(Nc5cc(C(F)(F)F)nn5C)n4)cs3)c2)C1=O [Example 281, (R)-3-Hydroxy-1-methyl-3-(3-(4-(2-((1-methyl-3-(trifluoromethyl)-1H-pyrazol-5-yl)amino)pyrimidin-4-yl)thiazol-2-yl)phenyl)pyrrolidin-2-one] | < 100 nM | > 501 nM |  |
| CN1CC[C@@](O)(c2cccc(-c3nc(-c4ccnc(Nc5cccnc5OC(F)F)n4)cs3)c2)C1=O [Example 282, (R)-3-(3-(4-(2-((2-(Difluoromethoxy)pyridin-3-yl)amino)pyrimidin-4-yl)thiazol-2-yl)phenyl)-3-hydroxy-1-methylpyrrolidin-2-one] | < 100 nM | 100 to 500 nM |  |
| CN1CC[C@@](O)(c2cccc(-c3nc(-c4ccnc(Nc5cn(C)nc5OC5CCC5)n4)cs3)c2)C1=O [Example 97, (R)-3-(3-(4-(2-((3-cyclobutoxy-1-methyl-1H-pyrazol-4-yl)amino)pyrimidin-4-yl)thiazol-2-yl)phenyl)-3-hydroxy-1-methylpyrrolidin-2-one] | < 100 nM | < 100 nM |  |
| CN1CC[C@@](O)(c2cccc(-c3nc(-c4ccnc(NC5CCN(S(C)(=O)=O)CC5)n4)cs3)c2)C1=O [Example 47, (R)-3-Hydroxy-1-methyl-3-(3-(4-(2-((1-(methylsulfonyl)piperidin-4-yl)amino)pyrimidin-4-yl)thiazol-2-yl)phenyl)pyrrolidin-2-one] | < 100 nM | > 501 nM |  |
| CC(Nc1nccc(-c2nc(-c3cccc(C4(O)CCN(C)C4=O)c3)cs2)n1)c1cc[nH]n1 (single isomer, unassigned) [Example 41] | < 100 nM |  | 100 to 500 nM |
| CN1CC[C@@](O)(c2cccc(-c3nc(-c4ccnc(Nc5cnn(C)c5)n4)cs3)c2)C1=O [Example 177] | < 100 nM | < 100 nM |  |
| CN1CC[C@@](O)(c2cccc(-c3nc(-c4ccnc(NC5CCC(F)(F)CC5)n4)cs3)c2)C1=O [Example 241] | < 100 nM | > 501 nM |  |
| Cc1ncccc1CNc1nccc(-c2csc(-c3cccc([C@]4(O)CCN(C)C4=O)c3)n2)n1 [Example 219] | < 100 nM | > 501 nM |  |
| Cc1cc(Nc2nccc(-c3csc(-c4cccc([C@]5(O)CCN(C)C5=O)c4)n3)n2)nn1C [Example 49, (R)-3-(3-(4-(2-((1,5-Dimethyl-1H-pyrazol-3-yl)amino)pyrimidin-4-yl)thiazol-2-yl)phenyl)-3-hydroxy-1-methylpyrrolidin-2-one] | < 100 nM | 100 to 500 nM |  |
| CN1CC[C@@](O)(c2cccc(-c3nc(-c4ccnc(N[C@H]5CC[C@@H](O)C5)n4)cs3)c2)C1=O [Example 253] | < 100 nM | > 501 nM |  |
| CN1CC[C@@](O)(c2cccc(-c3nc(-c4ccnc(Nc5cnn(C(F)F)c5)n4)cs3)c2)C1=O [Example 271, (R)-3-(3-(4-(2-((1-(Difluoromethyl)-1H-pyrazol-4-yl)amino)pyrimidin-4-yl)thiazol-2-yl)phenyl)-3-hydroxy-1-methylpyrrolidin-2-one] | < 100 nM | 100 to 500 nM |  |
| CN1CC[C@@](O)(c2cccc(-c3nc(-c4ccnc(Nc5cc6ccccn6n5)n4)cs3)c2)C1=O [Example 277, (R)-3-Hydroxy-1-methyl-3-(3-(4-(2-(pyrazolo[1,5-a]pyridin-2-ylamino)pyrimidin-4-yl)thiazol-2-yl)phenyl)pyrrolidin-2-one] | 100 to 500 nM | > 501 nM |  |
| CN1C(=O)[C@](O)(c2ccnc(-c3csc(-c4ccnc(Nc5ccn(C)n5)n4)n3)c2)C[C@H]1C(F)(F)F (single isomer, unassigned) [Example 59] | < 100 nM | 100 to 500 nM |  |
| CN1CC[C@@](O)(c2cccc(-c3nc(-c4nc(Nc5ccn(C)n5)ncc4F)cs3)c2)C1=O [Example 52, (R)-3-(3-(4-(5-Fluoro-2-((1-methyl-1H-pyrazol-3-yl)amino)pyrimidin-4-yl)thiazol-2-yl)phenyl)-3-hydroxy-1-methylpyrrolidin-2-one] | 100 to 500 nM | > 501 nM |  |
| CN1CC[C@@](O)(c2cccc(-c3nc(-c4ccnc(NC5(c6ccccn6)CC5)n4)cs3)c2)C1=O [Example 224] | 100 to 500 nM | > 501 nM |  |
| Cc1nccc(Nc2nccc(-c3csc(-c4cccc([C@]5(O)CCN(C)C5=O)c4)n3)n2)n1 [Example 159, (R)-3-Hydroxy-1-methyl-3-(3-(4-(2-((2-methylpyrimidin-4-yl)amino)pyrimidin-4-yl)thiazol-2-yl)phenyl)pyrrolidin-2-one] | < 100 nM | > 501 nM |  |
| CN1CC[C@@](O)(c2cccc(-n3ccc(-c4ccnc(Nc5ccn(C)n5)n4)n3)c2)C1=O [Example 55, (R)-3-hydroxy-1-methyl-3-(3-(3-(2-((1-methyl-1H-pyrazol-3-yl)amino)pyrimidin-4-yl)-1H-pyrazol-1-yl)phenyl)pyrrolidin-2-one] | < 100 nM | 100 to 500 nM |  |
| CN1CCC(O)(c2cc(F)cc(-c3csc(-c4ccnc(Nc5ccn(C)n5)n4)n3)c2)C1=O (single isomer, unassigned) [Example 27, 3-(3-fluoro-5-(2-(2-((1-methyl-1H-pyrazol-3-yl)amino)pyrimidin-4-yl)thiazol-4-yl)phenyl)-3-hydroxy-1-methylpyrrolidin-2-one] | < 100 nM |  | 100 to 500 nM |
| CN1CC[C@@](O)(c2cccc(-c3nc(-c4ccnc(NC5COC5)n4)cs3)c2)C1=O [Example 230] | < 100 nM | 100 to 500 nM |  |
| CN1CC[C@@](O)(c2cccc(-c3nc(-c4ccnc(Nc5nn(C)c6ccccc56)n4)cs3)c2)C1=O [Example 69, (R)-3-hydroxy-1-methyl-3-(3-(4-(2-((1-methyl-1H-indazol-3-yl)amino)pyrimidin-4-yl)thiazol-2-yl)phenyl)pyrrolidin-2-one] | < 100 nM | > 501 nM |  |
| CN1CC[C@@](O)(c2cccc(-c3nc(-c4ccnc(Nc5cn(C6CCC6)cn5)n4)cs3)c2)C1=O [Example 124, (R)-3-(3-(4-(2-((1-cyclobutyl-1H-imidazol-4-yl)amino)pyrimidin-4-yl)thiazol-2-yl)phenyl)-3-hydroxy-1-methylpyrrolidin-2-one] | < 100 nM | > 501 nM |  |
| CN1C[C@H](Nc2nccc(-c3csc(-c4cccc([C@]5(O)CCN(C)C5=O)c4)n3)n2)CC1=O (single isomer, unassigned) [Example 234] | 100 to 500 nM | > 501 nM |  |
